Patent US20110086389A1, “Compositions and Methods for Expressing In-Frame Multimeric Proteins” (priority 2008, published 2011)
Like-named read-outs stand apart in the source and are kept apart here. Where a SMILES comes first, the peptide text is derived from it. Bridges are numbered along the chain shown (N, C = ends). Where no end group is shown, it is not given here.

Legend:
[1] = biological target: T1, Kv1.1-1.2-1.1-1.2 (forward diagonal channel) (Rattus norvegicus, UniProt P10499+P63142); test: Whole-cell voltage-clamp (QPatch) inhibition of K+ current, diagonal channel; type: cell-based; conditions: for IC50: HEK-293 cells
T1 construct: nucleic acids encoding the full-length Kv subunit; inter-subunit linker to next subunit (region from Xenopus beta-globin UTRs); expressed in transfected cells; host or cells: HEK-293 (pIRES2-EGFP vector)
Protocol: (§1) Whole-cell voltage-clamp experiments were performed as outlined in Sokolov, et al., Neuropharmacol. 53:2, 272-282, (2007), whose disclosure is hereby incorporated by reference. The internal solution was (in mM): 90 KCl, 50 KF, 30 KOH, 10 EGTA, 20 HEPES, pH 7.4. The extracellular bath solution contained (in mM) 135 choline chloride, 20 KOH, 1.8 CaCl2, 1 MgCl2, and 40 HEPES, pH 7.4, and 0.01% (w/v) BSA. Solutions were exchanged by continuous flow with a peristaltic pump or a Cellectricon Dynaflow-16 system. Series resistance compensation was applied to minimize the voltage error (<10 mV). Correction was made for a calculated liquid junction potential of +8.4 mV. Holding potential was −100 mV. Leak subtraction was used to isolate K^+ current (IK). Analogue traces were filtered at 5 kHz, and sampled at 50 kHz. Non-linear fitting was carried out with equations described in (Sack et al., Gen. Physiol. 128:1, 119-132, (2006), whose disclosure is hereby incorporated by reference. Data are reported as mean±standard error; n values refer to number of individual cells tested. Statistical significance was evaluated by two-tailed Student's t-test using data obtained from at least five independent experiments performed in parallel.
(§2) In these examples, the functional properties of the Kv1 heteromers Kv1.1-1.1-1.2-1.2, Kv1.1-1.2-1.1-1.2, […] and Kv1.2-1.1-1.2-1.1 were compared by whole-cell, voltage-clamp, conventional recordings from HEK-293 cells transfected separately with each of the 4 constructs.
(§3) In these examples the sensitivities of the potassium channel currents mediated by these tetramers to various blockers were also examined. Inhibition by TEA, or Agitoxinl (AgTX1) and TsTX-Kα were determined.
(§4) Whole-cell voltage-clamp was performed as described in Example 25-27, except where specified. For larger scale recordings, an automated patch-clamp system (QPatch 16, Sophion, Denmark) was used; its disposable Qplates contain 16 individual and parallel patch-clamp positions. Cells were detached from culture plates with 0.05% trypsin/EDTA solution and kept in serum-free medium (CHO-S-SFM II [Invitrogen], 25 mM HEPES, pH 7.4, 0.04 μg/ml soya bean trypsin inhibitor, and 10 μg/ml penicillin-streptomycin) in an on-board stirred reservoir. Prior to testing, the cells were automatically transferred to an integral mini-centrifuge, pelleted, re-suspended in external solution (as detailed above) and washed before being applied to the pipeting wells in the Q plate. Giga-seals were formed upon execution of a combined suction/voltage protocol; gradually increasing suction leads to the whole-cell configuration. […] Whole cell currents were measured at a holding potential of −100 mV, then depolarised to +60 mV for 200 ms or stepped from the holding potential in +10 mV increments. […]

[2] = biological target: T2, Kv1.2-1.2-1.1-1.1 (reverse adjacent channel) (Rattus norvegicus, UniProt P10499+P63142); test: Whole-cell voltage-clamp (QPatch) inhibition of K+ current, reverse adjacent channel; type: cell-based; conditions: HEK-293 cells, holding −100 mV, depolarised to +60 mV
T2 construct: nucleic acids encoding the full-length Kv subunit; inter-subunit linker to next subunit (region from Xenopus beta-globin UTRs); expressed in transfected cells; host or cells: HEK-293 (pIRES2-EGFP vector)
Protocol: as §1, §2, §3
(§5) Whole-cell voltage-clamp was performed as described in Example 25-27, except where specified. […] Whole cell currents were measured at a holding potential of −100 mV, then depolarised to +60 mV for 200 ms or stepped from the holding potential in +10 mV increments. […]

[3] = biological target: T3, Kv1.1-1.1-1.2-1.2 (forward adjacent channel) (Rattus norvegicus, UniProt P10499+P63142); test: Whole-cell voltage-clamp (QPatch) inhibition of K+ current, adjacent channel; type: cell-based; conditions: for IC50: HEK-293 cells, holding −100 mV, depolarised to +60 mV
T3 construct: nucleic acids encoding the full-length Kv subunit; inter-subunit linker to next subunit (region from Xenopus beta-globin UTRs); expressed in transfected cells; host or cells: HEK-293 (pIRES2-EGFP vector)
Protocol: as §1, §2, §3, §4

[4] = biological target: T4, Kv1.2-1.1-1.2-1.1 (reverse diagonal channel) (Rattus norvegicus, UniProt P10499+P63142); test: Whole-cell voltage-clamp (QPatch) inhibition of K+ current, reverse diagonal channel; type: cell-based; conditions: HEK-293 cells
T4 construct: nucleic acids encoding the full-length Kv subunit; inter-subunit linker to next subunit (region from Xenopus beta-globin UTRs); expressed in transfected cells; host or cells: HEK-293 (pIRES2-EGFP vector)
Protocol: as §1, §2, §3, §5

[5] = biological target: T5, Kv1.1-1.2 dimer-containing channel (Rattus norvegicus, UniProt P10499+P63142); test: Whole-cell voltage-clamp inhibition of K+ current, dimer-containing channel; type: cell-based; conditions: HEK-293 cells
T5 construct: expressed in transfected cells
Protocol: as §1, §2, §3, §5

[6] = biological target: T6, Kv1.1-1.1-1.2-1.2 tetramer (Rattus norvegicus, UniProt P10499+P63142); test: Competition of 125I-αDTX binding to transfected HEK-293 cells; set-up: displacement of 125I-αDTX from the tetramer: dose or concentration left out as unconfirmed; conditions: for displacement of 125I-αDTX from the tetramer: transfected HEK-293 cells, FIG. 4B
T6 construct: nucleic acids encoding the full-length Kv subunit; inter-subunit linker to next subunit (region from Xenopus beta-globin UTRs); expressed in transfected cells; host or cells: HEK-293 (pIRES2-EGFP vector)
Protocol: HEK 293 cells are transiently transfected with a PIRES2-EGFP vector encoding Kv1.1-1.1-1.2-1.2 (also referred to as forward adjacent channel; see below) and the cells incubated to display the potassium channels on the cell membranes.
Cells are harvested in 25 mM Tris HCl, 5 mM KCl pH 7.5 Saturatable binding of ^125I-α-dendrotoxin (DTX), a Kv1-selective toxin, was performed using a filtration assay to measure the amount of assembled channel targeted to the plasmalemma. Transfected cells suspended in binding buffer were incubated for 1 hour with increasing concentrations of labelled DTX; for non-saturable binding experiments, the incubation is performed in the presence of 1 μM unlabeled DTX. Measurements are made in triplicate under established conditions by rapid filtration through GF/F glass microfiber filters presoaked with 0.5% (w/v) polyethyleneimine. The radioactivity associated with the washed filters was quantified by γ-radiation counting.
In FIG. […]

Kv1.4-1.6-1.1-1.2 = biological target: T7, Kv1.4-1.6-1.1-1.2 (Rattus norvegicus, UniProt P10499+P15385+P17659+P63142); test: Whole-cell voltage-clamp inhibition of IK, Kv1.4-containing hetero-tetramers; type: cell-based; conditions: Kv1.4-1.6-1.1-1.2 versus Kv1.4-1.6-1.3-1.2; 1, 10, 100 nM; assayed at ≦0 mV, FIG. 10F
T7 construct: nucleic acids encoding the full-length Kv subunit; inter-subunit linker to next subunit (region from Xenopus beta-globin UTRs); expressed in transfected cells; host or cells: HEK-293
Protocol: In these examples, the functional properties of the concatenated Kv1 heteromers Kv 1.1-1.1-1.2-1.2, Kv1.4-1.6-1.1-1.2 and Kv1.4-1.6-1.3-1.2 were examined by whole-cell voltage-clamped recordings from the corresponding transfected HEK-293 cells. The activation kinetics of the currents mediated by Kv 1.1-1.1-1.2-1.2 Kv 1.4-1.6-1.1-1.2 and Kv1.4-1.6-1.3-1.2 were determined.
The sensitivities of the potassium channel currents mediated by Kv 1.1-1.1-1.2-1.2 Kv 1.4-1.6-1.1-1.2 and Kv1.4-1.6-1.3-1.2 to various blockers were also examined in these examples.
Whole-cell voltage-clamp experiments were performed as outlined in Sokolov, et al., Neuropharmacol. 53:2, 272-282, (2007), whose disclosure is hereby incorporated by reference. The internal solution was (in mM): 90 KCl, 50 KF, 30 KOH, 10 EGTA, 20 HEPES, pH 7.4. […] Correction was made for a calculated liquid junction potential of +8.4 mV. […] Non-linear fitting was carried out with equations described in (Sack et al., Gen. Physiol. 128:1, 119-132, (2006), whose disclosure is hereby incorporated by reference. Data are reported as mean±standard error; n values refer to number of individual cells tested. Statistical significance was evaluated by two-tailed Student's t-test using data obtained from at least five independent experiments performed in parallel.

[7] = holding −100 mV, depolarised to +60 mV, read-out: IC50 TEA
[8] = unit printed in cell (row head says nM), read-out: IC50 AgTx1
[9] = unit printed in cell (row head says nM), read-out: IC50 TsTxKα

T2 sequence (P63142 whole entry): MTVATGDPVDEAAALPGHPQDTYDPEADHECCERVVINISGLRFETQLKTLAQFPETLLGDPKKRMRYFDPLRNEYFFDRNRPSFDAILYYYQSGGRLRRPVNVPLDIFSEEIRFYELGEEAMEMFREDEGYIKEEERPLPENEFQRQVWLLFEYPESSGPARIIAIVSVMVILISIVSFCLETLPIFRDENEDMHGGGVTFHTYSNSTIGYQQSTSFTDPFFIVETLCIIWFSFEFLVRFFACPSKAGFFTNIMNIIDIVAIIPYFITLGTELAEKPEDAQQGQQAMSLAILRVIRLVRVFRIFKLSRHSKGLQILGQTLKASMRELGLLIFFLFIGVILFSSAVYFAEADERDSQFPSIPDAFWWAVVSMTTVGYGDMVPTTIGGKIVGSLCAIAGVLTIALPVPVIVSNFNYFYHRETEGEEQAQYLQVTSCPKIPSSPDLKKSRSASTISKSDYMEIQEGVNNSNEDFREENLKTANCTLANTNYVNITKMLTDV
T2 sequence (P63142 whole entry): as above
T2 sequence (P10499 whole entry): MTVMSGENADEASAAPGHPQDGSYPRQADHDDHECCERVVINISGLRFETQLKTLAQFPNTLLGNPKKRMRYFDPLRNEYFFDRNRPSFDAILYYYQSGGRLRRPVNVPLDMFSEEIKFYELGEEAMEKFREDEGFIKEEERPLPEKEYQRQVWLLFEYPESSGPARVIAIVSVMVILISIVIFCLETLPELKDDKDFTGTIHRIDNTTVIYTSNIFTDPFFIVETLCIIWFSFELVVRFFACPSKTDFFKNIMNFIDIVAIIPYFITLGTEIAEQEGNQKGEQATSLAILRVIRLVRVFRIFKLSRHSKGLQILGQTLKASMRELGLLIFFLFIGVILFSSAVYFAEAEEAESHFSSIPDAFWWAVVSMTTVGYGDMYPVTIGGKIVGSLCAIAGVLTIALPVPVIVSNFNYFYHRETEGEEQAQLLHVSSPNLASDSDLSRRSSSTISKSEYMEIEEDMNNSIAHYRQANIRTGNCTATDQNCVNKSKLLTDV
T2 sequence (P10499 whole entry): as above
T4 sequence (P63142 whole entry): as the sequence (P63142 whole entry) above
T4 sequence (P10499 whole entry): as the sequence (P10499 whole entry) above
T4 sequence (P63142 whole entry): as the sequence (P63142 whole entry) above
T4 sequence (P10499 whole entry): as the sequence (P10499 whole entry) above
T5 sequence (P10499 whole entry): as above
T5 sequence (P63142 whole entry): as the sequence (P63142 whole entry) above
T1 sequence (P10499 whole entry): as the sequence (P10499 whole entry) above
T1 sequence (P63142 whole entry): as the sequence (P63142 whole entry) above
T1 sequence (P10499 whole entry): as the sequence (P10499 whole entry) above
T1 sequence (P63142 whole entry): as the sequence (P63142 whole entry) above
T6 sequence (P10499 whole entry): as the sequence (P10499 whole entry) above
T6 sequence (P10499 whole entry): as above
T6 sequence (P63142 whole entry): as the sequence (P63142 whole entry) above
T6 sequence (P63142 whole entry): as above
T3 sequence (P10499 whole entry): as the sequence (P10499 whole entry) above
T3 sequence (P10499 whole entry): as above
T3 sequence (P63142 whole entry): as the sequence (P63142 whole entry) above
T3 sequence (P63142 whole entry): as above
T7 sequence (P15385 whole entry): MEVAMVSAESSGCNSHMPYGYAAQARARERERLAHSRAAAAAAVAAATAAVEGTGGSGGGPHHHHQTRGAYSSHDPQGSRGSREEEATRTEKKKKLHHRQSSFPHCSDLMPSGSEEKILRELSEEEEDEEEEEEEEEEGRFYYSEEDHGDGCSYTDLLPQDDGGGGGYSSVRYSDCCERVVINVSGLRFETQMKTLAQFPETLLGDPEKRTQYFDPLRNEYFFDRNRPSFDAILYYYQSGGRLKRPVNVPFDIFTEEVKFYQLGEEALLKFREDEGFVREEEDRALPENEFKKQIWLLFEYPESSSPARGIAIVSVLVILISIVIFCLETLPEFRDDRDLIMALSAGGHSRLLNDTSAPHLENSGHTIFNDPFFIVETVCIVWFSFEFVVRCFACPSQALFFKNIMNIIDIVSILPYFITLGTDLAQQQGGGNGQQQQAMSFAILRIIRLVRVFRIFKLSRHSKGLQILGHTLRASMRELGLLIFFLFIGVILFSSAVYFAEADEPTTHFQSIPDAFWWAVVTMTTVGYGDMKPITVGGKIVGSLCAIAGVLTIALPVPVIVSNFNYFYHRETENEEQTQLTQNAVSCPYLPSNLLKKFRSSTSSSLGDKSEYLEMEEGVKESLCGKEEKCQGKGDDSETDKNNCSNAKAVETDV
T7 sequence (P17659 whole entry): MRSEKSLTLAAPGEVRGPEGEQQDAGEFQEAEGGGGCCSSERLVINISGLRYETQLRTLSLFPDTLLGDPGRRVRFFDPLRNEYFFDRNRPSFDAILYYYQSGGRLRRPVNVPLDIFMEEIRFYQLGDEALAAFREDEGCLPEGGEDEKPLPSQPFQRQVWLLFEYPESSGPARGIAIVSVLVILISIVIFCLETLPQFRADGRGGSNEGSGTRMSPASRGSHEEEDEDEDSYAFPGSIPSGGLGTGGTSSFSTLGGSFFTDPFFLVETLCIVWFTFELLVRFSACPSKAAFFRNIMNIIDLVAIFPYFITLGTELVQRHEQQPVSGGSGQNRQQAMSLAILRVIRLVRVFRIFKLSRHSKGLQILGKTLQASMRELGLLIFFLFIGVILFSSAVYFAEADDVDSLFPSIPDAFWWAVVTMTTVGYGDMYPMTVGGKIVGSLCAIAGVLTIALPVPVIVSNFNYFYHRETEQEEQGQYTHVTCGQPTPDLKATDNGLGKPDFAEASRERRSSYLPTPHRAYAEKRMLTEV
T7 sequence (P10499 whole entry): as the sequence (P10499 whole entry) above
T7 sequence (P63142 whole entry): as the sequence (P63142 whole entry) above

CC[N+](CC)(CC)CC [TEA, tetraethylammonium]
IC50 [1, 7]: 760000 ± 100000 nM | IC50 ([2]; read-out: IC50 TEA): 6700 ± 2000 µM | IC50 ([3]; read-out: IC50 TEA): 9700 ± 1000 µM | fold lower affinity for TEA than the corresponding diagonals ([3]; forward and reverse adjacent channels versus diagonal channels, FIG. 12B): ~11 fold | IC50 [4, 7]: 960000 ± 140000 nM | IC50 ([5]; read-out: IC50 TEA): 12000 ± 1000 µM

α-dendrotoxin (QPRRKLCILHRNPGRCYDKIPAFYYNQKKKQCERFDWSGCGGNSNRFKTIEECRRTCIG) [αDTX]
displacement of 125I-αDTX from the tetramer [6]: readily displaced

CC[C@H](C)[C@@H]1NC(=O)[C@@H]2CSSC[C@H](NC(=O)[C@H](CCCCN)NC(=O)[C@@H](NC(=O)[C@H](CC(N)=O)NC(=O)[C@@H](NC(=O)[C@@H]3CCCN3C(=O)[C@@H](NC(=O)CN)C(C)C)[C@@H](C)CC)C(C)C)C(=O)N[C@@H]([C@@H](C)O)C(=O)NCC(=O)N[C@@H](CO)C(=O)N3CCC[C@H]3C(=O)N[C@@H](CCC(N)=O)C(=O)N[C@H]3CSSC[C@H](NC(=O)[C@H](CCCCN)NC(=O)CNC(=O)[C@H](CC(N)=O)NC1=O)C(=O)N[C@@H](Cc1c[nH]cn1)C(=O)N[C@H](C(=O)N[C@H](C(=O)N1CCC[C@H]1C(=O)N[C@@H](CCCCN)C(=O)O)[C@@H](C)O)CSSC[C@H](NC(=O)[C@@H]1CCCN1C(=O)[C@H](CCCCN)NC(=O)[C@H](CC(C)C)NC3=O)C(=O)N[C@@H](CCCCN)C(=O)N[C@@H](CC(=O)O)C(=O)N[C@@H](C)C(=O)NCC(=O)N[C@@H](CCSC)C(=O)N[C@@H](CCCNC(=N)N)C(=O)N[C@@H](Cc1ccccc1)C(=O)NCC(=O)N[C@@H](CCCCN)C(=O)N2 [AgTx1, Agitoxinl] (H-GVPINVKCTGSPQCLKPCKDAGMRFGKCINGKCHCTPK-OH; disulfide 8-28, 14-33, 18-35; N-terminus and C-terminus assumed)
IC50 [1, 8]: > 1000 nM | sensitivity to AgTX1 ([1]; diagonal oligomers, FIG. 12C): virtually insensitive | IC50 ([2]; read-out: IC50 AgTx1): 0.005 ± 0.0005 µM | IC50 ([3]; read-out: IC50 AgTx1): 0.005 ± 0.0004 µM | IC50 [4, 8]: ≥ 1000 nM | IC50 ([5]; read-out: IC50 AgTx1): 0.039 ± 0.004 µM

ShK: toxin competing with 125I-αDTX binding; parent of derivative ShK-Dap^22
antagonism of 125I-αDTX binding ([6]; 2.5 μM 125I-αDTX, transfected HEK cells, FIG. 4C): to a greater extent than does the derivative ShK-Dap^22

CC[C@H](C)[C@@H]1NC(=O)[C@H](C)NC(=O)[C@H](CCC(=O)O)NC(=O)[C@H](CCCCN)NC(=O)[C@@H]2CSSC[C@@H](C(=O)N[C@@H](Cc3ccc(O)cc3)C(=O)N3CCC[C@H]3C(=O)O)NC(=O)[C@H](CCCCN)NC(=O)[C@@H]3CSSC[C@H](NC(=O)[C@H](CCC(=O)O)NC(=O)[C@@H]4CCCN4C(=O)[C@H](CO)NC(=O)CNC(=O)[C@H](CCCNC(=N)N)NC(=O)[C@@H](NC(=O)[C@H](CCCCN)NC(=O)[C@H](C)NC(=O)[C@H](CC(N)=O)NC(=O)[C@@H](NC(=O)[C@H](Cc4ccccc4)NC(=O)[C@@H](N)C(C)C)[C@@H](C)CC)CSSC[C@H](NC(=O)[C@H](CCCCN)NC(=O)CNC(=O)[C@H](C)NC(=O)[C@H](C)NC(=O)[C@H](CCCCN)NC(=O)CNC1=O)C(=O)N[C@@H](CCSC)C(=O)N[C@@H](CC(N)=O)C(=O)NCC(=O)N[C@@H](CCCCN)C(=O)N3)C(=O)N[C@@H](CC(C)C)C(=O)N1CCC[C@H]1C(=O)N[C@@H](CCCCN)C(=O)N2 [TsTxKα, tityustoxin-Kα] (H-VFINAKCRGSPECLPKCKEAIGKAAGKCMNGKCKCYP-OH; disulfide 7-28, 13-33, 17-35; N-terminus and C-terminus assumed)
IC50 [1, 9]: > 1000 nM | IC50 ([2]; read-out: IC50 TsTxKα): 0.025 ± 0.007 µM | IC50 ([3]; read-out: IC50 TsTxKα): 0.026 ± 0.003 µM | displacement of 125I-αDTX from the tetramer [6]: readily displaced | IC50 [4, 9]: > 1000 nM | IC50 ([5]; read-out: IC50 TsTxKα): 0.033 ± 0.003 µM

DTXk: toxin, Kv1 channel blocker competing with 125I-αDTX (AAKYCKLPLRIGPCKRKIPSFYYKWKAKQCLPFDYSGCGGNANRFKTIEECRRTCVG; ends and bridges not checked; cysteine pairing not given here)
inhibition of IK, sensitivity difference between channels (Kv1.4-1.6-1.1-1.2): significant sensitivity difference | displacement of 125I-αDTX from the tetramer [6]: readily displaced
